Experimental data published in ChEMBL document CHEMBL3286252, “Synthesis, biological evaluation and structure-activity relationship of new GABA uptake inhibitors, derivatives of 4-aminobutanamides” (Eur J Med Chem, 2014).

Legend:
[1] = Retardation factor of the compound using 25%NH3/MeOH/DCM/PE at ratio of 45:225:600:90 as solvent system by thin layer chromatography; type: physicochemical
[2] = biological target: T1, Sodium- and chloride-dependent GABA transporter 1 (Mus musculus, UniProt P31648); test: Inhibition of mouse GAT1 expressed in HEK293 cells assessed as decrease in [3H]GABA uptake; type: cell-based
GABA transporter 2 = biological target: T2, GABA transporter 2 (Mus musculus, UniProt P31651); test: Inhibition of mouse GAT2 expressed in HEK293 cells assessed as decrease in [3H]GABA uptake; type: cell-based
T2 sequence (P31651 whole entry): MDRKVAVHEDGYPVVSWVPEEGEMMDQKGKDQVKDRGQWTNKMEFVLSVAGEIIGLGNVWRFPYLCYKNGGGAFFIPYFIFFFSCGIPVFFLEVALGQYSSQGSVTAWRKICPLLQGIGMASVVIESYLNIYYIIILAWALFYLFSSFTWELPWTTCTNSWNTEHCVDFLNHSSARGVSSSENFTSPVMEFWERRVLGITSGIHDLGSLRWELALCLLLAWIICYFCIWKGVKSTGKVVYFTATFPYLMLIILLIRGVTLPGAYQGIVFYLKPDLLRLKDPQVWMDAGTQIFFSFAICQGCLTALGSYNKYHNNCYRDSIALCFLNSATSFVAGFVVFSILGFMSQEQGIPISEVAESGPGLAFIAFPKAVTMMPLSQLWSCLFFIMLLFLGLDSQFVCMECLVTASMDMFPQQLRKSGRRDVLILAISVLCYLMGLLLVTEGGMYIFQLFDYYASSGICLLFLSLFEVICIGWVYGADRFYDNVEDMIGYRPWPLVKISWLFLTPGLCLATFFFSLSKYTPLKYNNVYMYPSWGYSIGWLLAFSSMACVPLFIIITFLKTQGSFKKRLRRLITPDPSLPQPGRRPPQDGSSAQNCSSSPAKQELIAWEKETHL

GABA transporter 3 = biological target: T3, GABA transporter 3 (Mus musculus, UniProt P31649); test: Inhibition of mouse GAT3 expressed in HEK293 cells assessed as decrease in [3H]GABA uptake; type: cell-based
T3 sequence (P31649 whole entry): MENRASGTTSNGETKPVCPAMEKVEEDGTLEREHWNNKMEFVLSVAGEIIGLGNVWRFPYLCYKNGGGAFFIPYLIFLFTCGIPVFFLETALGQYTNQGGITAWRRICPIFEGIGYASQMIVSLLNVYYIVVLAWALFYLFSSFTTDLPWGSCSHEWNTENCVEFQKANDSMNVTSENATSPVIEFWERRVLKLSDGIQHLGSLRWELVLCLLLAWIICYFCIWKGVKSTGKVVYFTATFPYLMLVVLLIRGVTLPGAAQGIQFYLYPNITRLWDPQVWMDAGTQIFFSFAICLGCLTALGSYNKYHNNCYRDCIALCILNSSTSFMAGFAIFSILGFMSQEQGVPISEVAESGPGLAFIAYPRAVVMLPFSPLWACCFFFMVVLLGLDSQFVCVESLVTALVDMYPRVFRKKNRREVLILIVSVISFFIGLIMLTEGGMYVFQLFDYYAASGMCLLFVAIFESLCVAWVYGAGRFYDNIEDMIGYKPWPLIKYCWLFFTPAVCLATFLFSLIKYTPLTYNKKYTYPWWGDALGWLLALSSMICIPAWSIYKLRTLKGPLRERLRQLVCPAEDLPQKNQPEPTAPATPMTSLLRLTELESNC

GABA transporter 4 = biological target: T4, GABA transporter 4 (Mus musculus, UniProt P31650); test: Inhibition of mouse GAT4 expressed in HEK293 cells assessed as decrease in [3H]GABA uptake; type: cell-based
T4 sequence (P31650 whole entry): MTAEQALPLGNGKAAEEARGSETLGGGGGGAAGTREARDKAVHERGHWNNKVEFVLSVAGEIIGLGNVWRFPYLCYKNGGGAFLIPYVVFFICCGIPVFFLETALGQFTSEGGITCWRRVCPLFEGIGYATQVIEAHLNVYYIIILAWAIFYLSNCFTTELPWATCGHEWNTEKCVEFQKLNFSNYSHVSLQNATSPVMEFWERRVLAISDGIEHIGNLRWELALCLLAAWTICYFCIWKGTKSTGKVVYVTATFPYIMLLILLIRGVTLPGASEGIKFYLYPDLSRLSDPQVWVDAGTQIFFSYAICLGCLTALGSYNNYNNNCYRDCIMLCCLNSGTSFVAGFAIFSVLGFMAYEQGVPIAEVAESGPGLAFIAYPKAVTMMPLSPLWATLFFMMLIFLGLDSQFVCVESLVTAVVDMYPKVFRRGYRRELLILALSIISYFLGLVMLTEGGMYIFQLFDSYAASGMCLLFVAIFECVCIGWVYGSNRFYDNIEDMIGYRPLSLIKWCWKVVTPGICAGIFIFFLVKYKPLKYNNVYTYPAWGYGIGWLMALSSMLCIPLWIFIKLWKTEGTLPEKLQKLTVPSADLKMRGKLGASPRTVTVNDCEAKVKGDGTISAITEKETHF

[3] = biological target: T1, Sodium- and chloride-dependent GABA transporter 1; test: Displacement of NO711 from mouse GAT1 expressed in HEK293 cells by LC-MS/MS analysis; type: cell-based
[4] = Retardation factor of the compound using hexane/ethanol/TEA at ratio of 7:2:1 as solvent system by thin layer chromatography; type: physicochemical

| SMILES | Rf [1] | IC50 [2] [µM] | IC50 (GABA transporter 2) [µM] | IC50 (GABA transporter 3) [µM] | IC50 (GABA transporter 4) [µM] | Ki [3] [µM] | Rf [4] |
| --- | --- | --- | --- | --- | --- | --- | --- |
| NCCC(C(=O)NCc1ccc(Cl)cc1)N1CCC(=C(c2ccccc2)c2ccccc2)CC1 (centres undefined) | 0.8 | 11 | 10.5 | 12.9 | 12 | 24 | – |
| NCCC(C(=O)NCc1ccc(F)cc1)N1CCC(=C(c2ccccc2)c2ccccc2)CC1 (centres undefined) | 0.77 | 11 | 10.2 | 12.3 | 13.5 | 25.1 | – |
| CN(CCCC(c1ccccc1)c1ccccc1)C(CCN)C(=O)NCc1ccc(F)cc1 (centres undefined) | – | 16.6 | 11.5 | 26.9 | 13.5 | 21.4 | 0.22 |
| CN(CCCC(c1ccccc1)c1ccccc1)C(CCN)C(=O)NCc1ccccc1 (centres undefined) | – | 22.4 | 9.55 | 29.5 | 25.7 | 30.9 | 0.12 |
| CN(CCC=C(c1ccccc1)c1ccccc1)C(CCN)C(=O)NCc1ccccc1 (centres undefined) | 0.74 | 18.6 | 12 | 24 | 15.8 | 12.6 | – |
| NCCC(C(=O)NCc1ccccc1Cl)N1CCC(=C(c2ccccc2)c2ccccc2)CC1 (centres undefined) | 0.78 | 13.5 | 10.2 | 15.5 | 11 | 10.5 | – |
| Cc1ccc(CNC(=O)C(CCN)N2CCC(C(c3ccccc3)c3ccccc3)CC2)cc1 (centres undefined) | 0.92 | 13.2 | 7.94 | 14.5 | 7.41 | 16.6 | – |
| NCCC(C(=O)NCc1ccc(F)cc1)N1CCC(C(c2ccccc2)c2ccccc2)CC1 (centres undefined) | 0.9 | 15.8 | 9.33 | 21.4 | 8.51 | 33.9 | – |
| CN(CCCC(c1ccccc1)c1ccccc1)C(CCN)C(=O)NCc1ccc(Cl)cc1 (centres undefined) | – | 17.4 | 17.4 | 21.4 | 14.5 | 17.8 | 0.1 |
| NCCC(C(=O)NCc1ccc(Cl)cc1)N1CCC(C(c2ccccc2)c2ccccc2)CC1 (centres undefined) | 0.77 | 11.2 | 9.77 | 9.55 | 10.2 | 30.2 | – |
| CN(CCC=C(c1ccccc1)c1ccccc1)C(CCN)C(=O)NCc1ccc(Cl)cc1 (centres undefined) | 0.73 | 12.9 | 9.77 | 11.2 | 12.6 | 11.2 | – |
| Cc1ccc(CNC(=O)C(CCN)N(C)CCC=C(c2ccccc2)c2ccccc2)cc1 (centres undefined) | 0.84 | 8.51 | 9.55 | 12 | 9.77 | 9.12 | – |
| Cc1ccc(CNC(=O)C(CCN)N2CCN(C(c3ccccc3)c3ccccc3)CC2)cc1 (centres undefined) | 0.18 | 28.2 | 30.2 | 18.2 | 23.4 | 63.1 | – |
| NCCC(C(=O)NCc1ccccc1)N1CCC(C(c2ccccc2)c2ccccc2)CC1 (centres undefined) | 0.92 | 19.5 | 12 | 20.4 | 20 | 32.4 | – |
